Measurements as given in ChEMBL document CHEMBL1201862, “PubChem BioAssay data set” (2004).
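48-hour exposure; five concentrations; linearly interpolated endpoints. GI50 = concentration required for 50% inhibition of growth.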 The source made the active and inactive calls. Rule as the data show it: active = GI50 up to about 1.1 µM and inactive = higher.

What was measured:
Assay in all cases: NCI-60 cell line screen, 48 h
SNB-19 = test system: SNB-19
KM12 = test system: KM12
786-0 = test system: 786-0
OVCAR-8 = test system: OVCAR-8
OVCAR-5 = test system: OVCAR-5
MOLT-4 = test system: MOLT-4
BT-549 = test system: BT-549
MDA-MB-231 = test system: MDA-MB-231
SK-MEL-2 = test system: SK-MEL-2
K562 = test system: K562
NCI-H522 = test system: NCI-H522
HT-29 = test system: HT-29
SR = test system: SR
ACHN = test system: ACHN
OVCAR-4 = test system: OVCAR-4
SF-539 = test system: SF-539
MDA-N = test system: MDA-N
OVCAR-3 = test system: OVCAR-3
HOP-62 = test system: HOP-62
LOX IMVI = test system: LOX IMVI

Compound | GI50 (SNB-19) | GI50 (KM12) | GI50 (786-0) | GI50 (OVCAR-8) | GI50 (OVCAR-5) | GI50 (MOLT-4) | GI50 (BT-549) | GI50 (MDA-MB-231) | GI50 (SK-MEL-2) | GI50 (K562) | GI50 (NCI-H522) | GI50 (HT-29) | GI50 (SR) | GI50 (ACHN) | GI50 (OVCAR-4) | GI50 (SF-539) | GI50 (MDA-N) | GI50 (OVCAR-3) | GI50 (HOP-62) | GI50 (LOX IMVI)
CN(C)c1ccc(/N=N/c2ccc3[nH]cnc3c2)cc1 | 41.8 µM (inactive) | 29.2 µM (inactive) | 18.2 µM (inactive) | 38.4 µM (inactive) | 26.5 µM (inactive) | 21.8 µM (inactive) | 32.5 µM (inactive) | 15.1 µM (inactive) | 58.7 µM (inactive) | 19.5 µM (inactive) | 19.3 µM (inactive) | 16.1 µM (inactive) | 25.1 µM (inactive) | 19 µM (inactive) | 24.2 µM (inactive) | 17.8 µM (inactive) | 26.9 µM (inactive) | – | – | –
C/C(=N\c1ccc(N(C)C)cc1)c1ccccc1 | 86.3 µM (inactive) | 31.8 µM (inactive) | 19.8 µM (inactive) | 35.4 µM (inactive) | > 100 µM (inactive) | 23.9 µM (inactive) | 18.9 µM (inactive) | 18.3 µM (inactive) | 11.2 µM (inactive) | 21.3 µM (inactive) | 16.7 µM (inactive) | 30.5 µM (inactive) | 19.2 µM (inactive) | 26.2 µM (inactive) | 25.1 µM (inactive) | 56 µM (inactive) | 21.9 µM (inactive) | 17.8 µM (inactive) | 96.2 µM (inactive) | –
SCc1ccc(CS)s1 | > 100 µM (inactive) | > 100 µM (inactive) | > 100 µM (inactive) | > 100 µM (inactive) | > 100 µM (inactive) | > 100 µM (inactive) | > 100 µM (inactive) | > 100 µM (inactive) | – | > 100 µM (inactive) | > 100 µM (inactive) | > 100 µM (inactive) | > 100 µM (inactive) | – | > 100 µM (inactive) | > 100 µM (inactive) | > 100 µM (inactive) | > 100 µM (inactive) | > 100 µM (inactive) | > 100 µM (inactive)
COc1cc(/C=C2/Oc3c(OC)cccc3C2=O)ccc1O | 91 µM (inactive) | 88.5 µM (inactive) | 76.4 µM (inactive) | > 100 µM (inactive) | > 100 µM (inactive) | 50.4 µM (inactive) | > 100 µM (inactive) | > 100 µM (inactive) | > 100 µM (inactive) | > 100 µM (inactive) | 24.7 µM (inactive) | 52.4 µM (inactive) | 29.9 µM (inactive) | 63.7 µM (inactive) | > 100 µM (inactive) | – | > 100 µM (inactive) | 61.2 µM (inactive) | 83.8 µM (inactive) | 84.5 µM (inactive)
Oc1ccc(/C=C/c2ccc3cccc(O)c3n2)cc1O | 5.02 µM (inactive) | 5.45 µM (inactive) | 3.24 µM (inactive) | 5.86 µM (inactive) | 16.1 µM (inactive) | 0.973 µM (active) | 1.61 µM (inactive) | 23 µM (inactive) | 11.9 µM (inactive) | 3.69 µM (inactive) | – | 14.7 µM (inactive) | 3.22 µM (inactive) | 3.42 µM (inactive) | 7.5 µM (inactive) | 3.13 µM (inactive) | 5.41 µM (inactive) | 10.9 µM (inactive) | 13.1 µM (inactive) | 4.48 µM (inactive)
O=C(c1ccccc1)N1CCC(CC2(c3cc4ccccc4[nH]3)OCCO2)CC1 | 67.9 µM (inactive) | 34.2 µM (inactive) | 17.8 µM (inactive) | 58.6 µM (inactive) | 64 µM (inactive) | 19.5 µM (inactive) | 52.5 µM (inactive) | 64.1 µM (inactive) | 30.7 µM (inactive) | 16.3 µM (inactive) | – | 26.5 µM (inactive) | 33 µM (inactive) | 65.8 µM (inactive) | 47.3 µM (inactive) | 37.7 µM (inactive) | 26.2 µM (inactive) | > 100 µM (inactive) | 58.1 µM (inactive) | 17.2 µM (inactive)
NS(=O)(=O)c1ccc(NCc2cnc3ccccc3n2)cc1 | > 100 µM (inactive) | > 100 µM (inactive) | > 100 µM (inactive) | > 100 µM (inactive) | > 100 µM (inactive) | > 100 µM (inactive) | > 100 µM (inactive) | > 100 µM (inactive) | > 100 µM (inactive) | > 100 µM (inactive) | > 100 µM (inactive) | > 100 µM (inactive) | > 100 µM (inactive) | > 100 µM (inactive) | > 100 µM (inactive) | > 100 µM (inactive) | > 100 µM (inactive) | > 100 µM (inactive) | > 100 µM (inactive) | –
CNC(=O)N1N[C@H](c2ccccc2)[C@@H]1c1ccccc1.OB(O)O | 46.1 µM (inactive) | 17 µM (inactive) | 32.4 µM (inactive) | 14.5 µM (inactive) | 29.9 µM (inactive) | 18.7 µM (inactive) | 19.3 µM (inactive) | 28.8 µM (inactive) | 15.3 µM (inactive) | 22.6 µM (inactive) | – | 16.4 µM (inactive) | 18.4 µM (inactive) | 36.6 µM (inactive) | 42 µM (inactive) | 17.9 µM (inactive) | 28.1 µM (inactive) | 17 µM (inactive) | 28.6 µM (inactive) | 18 µM (inactive)
Nc1nc2c(C(=O)O)c3ccc([N+](=O)[O-])cc3c(=O)n2c2ccccc12 | 28.5 µM (inactive) | 25.8 µM (inactive) | 20.6 µM (inactive) | 18.7 µM (inactive) | 31 µM (inactive) | 14.4 µM (inactive) | 27.9 µM (inactive) | 24.9 µM (inactive) | 24.9 µM (inactive) | 19.5 µM (inactive) | 19.9 µM (inactive) | 34.7 µM (inactive) | 24.3 µM (inactive) | 33.1 µM (inactive) | 31 µM (inactive) | – | 22.8 µM (inactive) | 21.1 µM (inactive) | 22.5 µM (inactive) | 11.9 µM (inactive)
COc1ccc(C2=CC(C(C)=C(C(N)=O)C(N)=O)C=C(c3ccc(Br)cc3)C2)c(OC)c1 (stereo unspecified) | > 100 µM (inactive) | > 100 µM (inactive) | > 100 µM (inactive) | > 100 µM (inactive) | > 100 µM (inactive) | > 100 µM (inactive) | > 100 µM (inactive) | > 100 µM (inactive) | > 100 µM (inactive) | > 100 µM (inactive) | > 100 µM (inactive) | > 100 µM (inactive) | > 100 µM (inactive) | > 100 µM (inactive) | > 100 µM (inactive) | – | > 100 µM (inactive) | > 100 µM (inactive) | > 100 µM (inactive) | > 100 µM (inactive)
O=[N+]([O-])c1ccc2c(c1)Sc1ccccc1N2 | 78.2 µM (inactive) | > 100 µM (inactive) | 64.3 µM (inactive) | > 100 µM (inactive) | > 100 µM (inactive) | 6.34 µM (inactive) | > 100 µM (inactive) | 46.1 µM (inactive) | – | 5.41 µM (inactive) | 6.73 µM (inactive) | > 100 µM (inactive) | 12 µM (inactive) | 64.1 µM (inactive) | > 100 µM (inactive) | > 100 µM (inactive) | 6.12 µM (inactive) | > 100 µM (inactive) | 34.1 µM (inactive) | 41.3 µM (inactive)
CN1CCN(Cc2cc3c(nn2)-c2ccccc2C3=O)CC1 | 43.5 µM (inactive) | 59.2 µM (inactive) | 40.6 µM (inactive) | 95.7 µM (inactive) | > 100 µM (inactive) | 38.7 µM (inactive) | 53.6 µM (inactive) | > 10 µM (inactive) | > 100 µM (inactive) | 47.1 µM (inactive) | 14.3 µM (inactive) | 53 µM (inactive) | 18.3 µM (inactive) | 26.2 µM (inactive) | – | 72.9 µM (inactive) | 24.4 µM (inactive) | – | – | –
[N-]=[N+]=Nc1c(C=O)c(=O)n(-c2ccccc2)c2ccccc12 | 57 µM (inactive) | 54.5 µM (inactive) | 18.5 µM (inactive) | – | 55.8 µM (inactive) | 2.63 µM (inactive) | 31.8 µM (inactive) | 40.3 µM (inactive) | 29.2 µM (inactive) | 3.89 µM (inactive) | – | 23.1 µM (inactive) | 6.64 µM (inactive) | 19 µM (inactive) | 16.7 µM (inactive) | 73.5 µM (inactive) | 37.8 µM (inactive) | 16.1 µM (inactive) | 29.3 µM (inactive) | 14.8 µM (inactive)
CCOC(=O)c1ccc(NCC#CCN2CCOCC2)cc1 | > 100 µM (inactive) | > 100 µM (inactive) | > 100 µM (inactive) | – | 19.9 µM (inactive) | > 100 µM (inactive) | > 100 µM (inactive) | > 100 µM (inactive) | > 100 µM (inactive) | 38.6 µM (inactive) | – | 69.2 µM (inactive) | > 100 µM (inactive) | 46 µM (inactive) | > 100 µM (inactive) | > 100 µM (inactive) | 29.4 µM (inactive) | > 100 µM (inactive) | > 100 µM (inactive) | > 100 µM (inactive)
Cc1ccc(S(=O)(=O)Oc2nc3ccccc3nc2OS(=O)(=O)c2ccc(C)cc2)cc1 | > 100 µM (inactive) | > 100 µM (inactive) | > 100 µM (inactive) | > 100 µM (inactive) | > 100 µM (inactive) | 71.3 µM (inactive) | > 100 µM (inactive) | > 100 µM (inactive) | > 100 µM (inactive) | 32.4 µM (inactive) | 16.9 µM (inactive) | > 100 µM (inactive) | 54.7 µM (inactive) | > 100 µM (inactive) | – | > 100 µM (inactive) | > 100 µM (inactive) | > 100 µM (inactive) | – | > 100 µM (inactive)
